Five compounds from ChEMBL document CHEMBL1201862, “PubChem BioAssay data set” (2004) can be followed below.

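48-hour exposure; five concentrations; linearly interpolated endpoints. GI50 marks 50% less growth.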 Active and inactive are the calls of the source. Rule as the data show it: active = GI50 up to about 1.1 µM and inactive = higher.

Some test systems named below: 786-0; NCI-H460; TK-10; A549; OVCAR-8; SNB-19; SR; COLO 205; MDA-MB-231; A498; NCI-H226; CAKI-1; NCI/ADR-RES; NCI-H522; SK-MEL-28; OVCAR-3; K562; HL-60; U-251; OVCAR-5.
Common to all, as to assay: inhibition of tumour cell growth, NCI panel, 48 h

Consider `Brc1ccc2[nH]cc(-c3csc(-c4c[nH]c5ccc(Br)cc45)n3)c2c1`, for which the GI50 with 786-0 was 1.8 µM (inactive); with NCI-H460, 1.73 µM (inactive); in the assay with TK-10 it was 2.69 µM (inactive); in the assay with A549 it was 2.69 µM (inactive); in the assay on OVCAR-8, 2.45 µM (inactive); in the assay with SNB-19 it was 2.88 µM (inactive). The GI50 with SR is 1.63 µM (inactive); with COLO 205, 1.61 µM (inactive); in the assay with MDA-MB-231, 1.66 µM (inactive); with A498, 2.13 µM (inactive); in the assay with NCI-H226, 2.1 µM (inactive); in the assay with CAKI-1, 1.95 µM (inactive). The GI50 with NCI/ADR-RES was 2.21 µM (inactive); in the assay on NCI-H522, 1.66 µM (inactive); in the assay on SK-MEL-28, 2.11 µM (inactive); with OVCAR-3, 2.45 µM (inactive); with K562 it was 1.77 µM (inactive); with HL-60, 3.24 µM (inactive). Also, the figures for the GI50 in the assay with U-251 and with OVCAR-5 were 1.82 µM (inactive) and 1.97 µM (inactive), respectively.

Take `CN1CCN(c2c(Cl)cc(Cl)c3[nH]c4ccccc4c(=O)c23)CC1`: the GI50 in the assay on 786-0 is 5.75 µM (inactive); with NCI-H460, 11.2 µM (inactive); with TK-10, 10.6 µM (inactive); with A549 it was 5.56 µM (inactive); with OVCAR-8 it was 5.07 µM (inactive); in the assay with SNB-19, 6.4 µM (inactive). Besides, the GI50 with SR was 0.301 µM (active); in the assay on COLO 205, 4.17 µM (inactive); in the assay on MDA-MB-231, 10.3 µM (inactive); in the assay on A498, 3.96 µM (inactive); in the assay with NCI-H226, 9.77 µM (inactive); in the assay on CAKI-1 it was 5.68 µM (inactive). For the same compound, the GI50 was 7.35 µM (inactive) with NCI/ADR-RES; 2.77 µM (inactive) in the assay on NCI-H522; 13.1 µM (inactive) in the assay on SK-MEL-28; 10.2 µM (inactive) with OVCAR-3; 3.66 µM (inactive) with K562; 2.28 µM (inactive) with HL-60. The GI50 in the assay on U-251 was 5.82 µM (inactive); in the assay on OVCAR-5, 10.2 µM (inactive).

Turning to `CN(NC1=NCCO1)c1ccc2ccccc2c1`, the GI50 is 54.6 µM (inactive) with 786-0; 27.2 µM (inactive) with NCI-H460; > 100 µM (inactive) in the assay with TK-10; 60.3 µM (inactive) with A549; 47.3 µM (inactive) in the assay on OVCAR-8; 54.7 µM (inactive) with SNB-19. The GI50 is 39.6 µM (inactive) with SR; 41.1 µM (inactive) in the assay on COLO 205; 26.3 µM (inactive) in the assay on MDA-MB-231; 44.3 µM (inactive) in the assay with A498; 34.1 µM (inactive) in the assay on NCI-H226; 32.9 µM (inactive) in the assay with CAKI-1. For the same compound, the GI50 in the assay with NCI/ADR-RES was 33.2 µM (inactive); with NCI-H522, 29.9 µM (inactive); in the assay with SK-MEL-28, 70.3 µM (inactive); with OVCAR-3, 23.6 µM (inactive); with K562, 28.3 µM (inactive); with HL-60 it was 26.9 µM (inactive). The results for the GI50 in the assay on U-251 and in the assay on OVCAR-5 were 59.7 µM (inactive) and 80 µM (inactive), respectively.

As to `C=CCSC1=N/C(=C\c2ccccc2)C(=O)N1CC=C`, the GI50 in the assay on 786-0 is 31.7 µM (inactive); in the assay on NCI-H460, 41.6 µM (inactive); in the assay on TK-10 it was > 74.6 µM (inactive); in the assay on A549, 44.6 µM (inactive); in the assay with OVCAR-8 it was 32.7 µM (inactive); in the assay with SNB-19, > 100 µM (inactive). For the same compound, the GI50 with SR is 22.7 µM (inactive); in the assay with COLO 205 it was 41.6 µM (inactive); in the assay on MDA-MB-231, 39.9 µM (inactive); in the assay with A498, 23.1 µM (inactive); in the assay with NCI-H226, 28.5 µM (inactive); in the assay on CAKI-1, 60.5 µM (inactive). Besides, the GI50 in the assay with NCI/ADR-RES was 45.1 µM (inactive); in the assay with NCI-H522, 31.2 µM (inactive); in the assay on SK-MEL-28, > 83.8 µM (inactive); with OVCAR-3, > 47.2 µM (inactive); with K562, 3.48 µM (inactive); in the assay on HL-60, 5.24 µM (inactive). Also, the GI50 with U-251 is 37.7 µM (inactive); in the assay on OVCAR-5, > 100 µM (inactive).

As to `Cc1cccc2c(N)c3cccc(C(=O)NCCCNCCN)c3nc12`, the GI50 in the assay on 786-0 was 1.71 µM (inactive); in the assay with NCI-H460, 1.1 µM (active); in the assay with TK-10, 17.1 µM (inactive); in the assay with A549, 0.596 µM (active); with OVCAR-8, 5.32 µM (inactive); with SNB-19, 3.09 µM (inactive). For the same compound, the GI50 in the assay on SR was 2.04 µM (inactive); in the assay with COLO 205, 6.37 µM (inactive); in the assay on MDA-MB-231, 0.593 µM (active); in the assay with A498 it was 11.4 µM (inactive); in the assay on NCI-H226, 0.311 µM (active); with CAKI-1, 7.91 µM (inactive). The GI50 with NCI/ADR-RES is 25.9 µM (inactive); in the assay on NCI-H522 it was < 0.01 µM (active); in the assay on SK-MEL-28 it was 15.5 µM (inactive); with OVCAR-3, 20.2 µM (inactive); with K562, 12.9 µM (inactive); with HL-60 it was 12.2 µM (inactive). For the same compound, the GI50 in the assay on U-251 was 1.3 µM (inactive); in the assay on OVCAR-5 it was 11 µM (inactive).
